± gives the expanded uncertainty stated by the source.
Assay: refractive index (Na D-line) (dimensionless); cn = amount concentration of the nth substance listed, in mol/dm3
Conditions: 101.3 kPa, Liquid, Standard Abbe refractometry

CC(N)C(=O)[O-].[Na+] (stereo not drawn) [sodium DL-alaninate] + O
refractive index
Conditions | 303.15 K | 308.15 K | 313.15 K | 318.15 K | 323.15 K | 328.15 K | 333.15 K | 338.15 K | 343.15 K
c1 = 0.498 | 1.3409 ± 0.00033 | 1.34021 ± 0.00033 | 1.33945 ± 0.00033 | 1.33864 ± 0.00033 | 1.33778 ± 0.00033 | 1.33688 ± 0.00033 | 1.33592 ± 0.00033 | 1.3349 ± 0.00033 | 1.33388 ± 0.00033
c1 = 0.99 | 1.34952 ± 0.00037 | 1.34876 ± 0.00037 | 1.34796 ± 0.00037 | 1.34712 ± 0.00037 | 1.34624 ± 0.00037 | 1.34528 ± 0.00037 | 1.34432 ± 0.00037 | 1.34333 ± 0.00036 | 1.34232 ± 0.00036
c1 = 1.485 | 1.35799 ± 0.00042 | 1.35719 ± 0.00042 | 1.35636 ± 0.00041 | 1.35547 ± 0.00041 | 1.35455 ± 0.00041 | 1.35358 ± 0.00041 | 1.35259 ± 0.00041 | 1.35156 ± 0.00041 | 1.35053 ± 0.00041
c1 = 1.983 | 1.3663 ± 0.00047 | 1.36544 ± 0.00047 | 1.36454 ± 0.00047 | 1.36361 ± 0.00047 | 1.36264 ± 0.00047 | 1.36164 ± 0.00047 | 1.36061 ± 0.00047 | 1.35958 ± 0.00046 | 1.35853 ± 0.00046
c1 = 2.476 | 1.37433 ± 0.00053 | 1.37341 ± 0.00053 | 1.37246 ± 0.00053 | 1.37149 ± 0.00053 | 1.37049 ± 0.00052 | 1.36949 ± 0.00052 | 1.36845 ± 0.00052 | 1.36735 ± 0.00052 | 1.36627 ± 0.00052
c1 = 3.063 | 1.38382 ± 0.00061 | 1.38284 ± 0.00061 | 1.3818 ± 0.00061 | 1.38074 ± 0.0006 | 1.3797 ± 0.0006 | 1.37866 ± 0.0006 | 1.37755 ± 0.0006 | 1.37643 ± 0.0006 | 1.37534 ± 0.00059

CC(N)C(=O)[O-].[K+] (stereo not drawn) [potassium DL-alaninate] + O
refractive index
Conditions | 303.15 K | 308.15 K | 313.15 K | 318.15 K | 323.15 K | 328.15 K | 333.15 K | 338.15 K | 343.15 K
c1 = 0.526 | 1.3409 ± 0.00033 | 1.34021 ± 0.00033 | 1.33947 ± 0.00033 | 1.33867 ± 0.00033 | 1.33782 ± 0.00033 | 1.33692 ± 0.00033 | 1.33599 ± 0.00033 | 1.335 ± 0.00033 | 1.33402 ± 0.00033
c1 = 1.009 | 1.34955 ± 0.00037 | 1.3488 ± 0.00037 | 1.34802 ± 0.00037 | 1.3472 ± 0.00037 | 1.34634 ± 0.00037 | 1.34542 ± 0.00037 | 1.34446 ± 0.00037 | 1.34349 ± 0.00037 | 1.34248 ± 0.00037
c1 = 1.501 | 1.35822 ± 0.00042 | 1.35743 ± 0.00042 | 1.35661 ± 0.00042 | 1.35576 ± 0.00042 | 1.35486 ± 0.00042 | 1.35394 ± 0.00042 | 1.35299 ± 0.00042 | 1.352 ± 0.00042 | 1.35098 ± 0.00042
c1 = 2.005 | 1.36647 ± 0.00048 | 1.36566 ± 0.00048 | 1.36481 ± 0.00048 | 1.36391 ± 0.00047 | 1.363 ± 0.00047 | 1.36206 ± 0.00047 | 1.3611 ± 0.00047 | 1.3601 ± 0.00047 | 1.3591 ± 0.00047
c1 = 2.501 | 1.37461 ± 0.00055 | 1.37375 ± 0.00055 | 1.37285 ± 0.00054 | 1.37195 ± 0.00054 | 1.37103 ± 0.00054 | 1.37004 ± 0.00054 | 1.36904 ± 0.00054 | 1.36803 ± 0.00054 | 1.36701 ± 0.00054
c1 = 2.986 | 1.38281 ± 0.0006 | 1.38192 ± 0.0006 | 1.38098 ± 0.0006 | 1.38002 ± 0.0006 | 1.37908 ± 0.0006 | 1.37809 ± 0.0006 | 1.3771 ± 0.00059 | 1.3761 ± 0.00059 | 1.37507 ± 0.00059
c1 = 3.498 | 1.39058 ± 0.00065 | 1.38964 ± 0.00065 | 1.3887 ± 0.00065 | 1.38775 ± 0.00065 | 1.38677 ± 0.00065 | 1.38576 ± 0.00064 | 1.38471 ± 0.00064 | 1.38364 ± 0.00064 | 1.38259 ± 0.00064
